Source: PMC8008885 (Journal of Enzyme Inhibition and Medicinal Chemistry, 2021)

Test system: H3K9me3 occupancy in promoter regions
Experiment: H3K9me3-ChIP sequencing of striatal tissue of YAC128 mice
Assay type: in vivo, mouse
Method: ChIP for H3K9me3 binding to DNA was performed using a CHIP assay kit (Santa Cruz, Dallas, TX) as described previously[21]^,[28]. Striatal tissues from WT, vehicle treated YAC128, and APQ-treated YAC128 mice were crossed-linked with 1% formaldehyde for 20 min at room temperature. Lysates were sonicated for 30 s six times using a Bioruptor (Diagenode Inc., Denville, NJ). After centrifugation, the supernatant was diluted in CHIP dilution buffer and incubated overnight at 4 °C with anti-H3K9me3 antibody. Immune complexes were recovered by the addition of 60 µl of salmon sperm DNA/protein A agarose-50% slurry and incubation at 4 °C for 2 h with rotation. Beads were pelleted and washed with low and high salt buffer followed by LiCl buffer (x3). Immune complexes were eluted by incubation with 500 µl of fresh elution buffer (1% SDS, 0.1 M NaHCO3) and 20 µl of 5 M NaCl. DNA was cleaned by the addition of 500 mM EDTA, 1 M Tris, and proteinase K at 66 °C for 4 h. The DNA solution was extracted with a phenol/chloroform/isoamyl alcohol mixture to remove protein contaminants, followed by precipitation with 100% ethanol. After precipitation, the pellet was washed with 70% ethanol and dissolved in 20 µl DW.
The Model-based Analysis of ChIP-Seq algorithm (MACS; v. 1.4.2) was used to identify regions of H3K9me3 enrichment with the default parameters. The peaks that pass a Poisson p values threshold of 0.1 were used for further analyses[28]^,[42]. In order to obtain reliable regions of enrichment, the regions detected in more than two samples were selected and aligned to define the consensus regions using DiffBind R package (v. 2.4.8)[43]. The reads in the consensus regions were counted and DESeq2 was applied to identify DMRs[44]. The DMRs were defined as p values of ≤.05 and only DMRs in promoter region (≤3 K from transcription start site) were selected.
Among the read peaks, a total of H3K9me3-enriched 71735 sites were commonly detected using MACS in WT, vehicle-treated YAC128, and APQ-treated YAC128 mice (using DiffBind R package). The reads were re-counted in the 71,735 sites (using DESeq2) and the H3K9me3-enriched sites in promoter region (≤3 K), with p values ≤.01 were selected. Then the H3K9me3-enriched sites with 1.5-fold higher in vehicle-treated YAC128 compared to WT and 1.5-fold lower in vehicle-treated YAC128 compared to APQ-treated YAC128 were finally selected.

## C=CCOc1cccc2nc(N3CCCC3)ccc12 [APQ, 5-allyloxy-2-(pyrrolidin-1-yl)quinoline]
APQ-treated vs vehicle-treated YAC128 mice
  number of targets with 1.5-fold decrease of H3K9me3 occupancy: 7060
APQ-treated vs vehicle-treated YAC128 mice, pie graph analysis
  H3K9me3 occupancy in the promoter region (–1 k to –3 kb): reduced
Gripap1, Promoter (1-2kb), chrX_7787762_7788457, APQ-treated YAC vs YAC mice striatum
  Fold(YACEi/YAC) H3K9me3 ChIP occupancy: -2.38
H3K9me3 ChIP peak chr1_71652484_71652752, Apol7d, Promoter (<=1kb)
  Fold(YACEi/YAC): -3.31
H3K9me3 ChIP peak chr1_131908530_131908816, Nucks1, Promoter (1-2kb)
  Fold(YACEi/YAC): -4.01
H3K9me3 ChIP peak chr1_153487828_153488249, Dhx9, Promoter (<=1kb)
  Fold(YACEi/YAC): -2.43
H3K9me3 ChIP peak chr2_5015774_5016013, Mcm10, Promoter (2-3kb)
  Fold(YACEi/YAC): -3.52
H3K9me3 ChIP peak chr3_35666243_35666969, Gm6639, Promoter (<=1kb)
  Fold(YACEi/YAC): -3.37
H3K9me3 ChIP peak chr3_38487666_38488045, Ankrd50, Promoter (2-3kb)
  Fold(YACEi/YAC): -2.49
H3K9me3 ChIP peak chr3_81977204_81977533, Tdo2, Promoter (1-2kb)
  Fold(YACEi/YAC): -3.71
H3K9me3 ChIP peak chr3_92487863_92488097, Sprr1a, Promoter (1-2kb)
  Fold(YACEi/YAC): -3.63
H3K9me3 ChIP peak chr3_101112649_101113010, Ptgfrn, Promoter (2-3kb)
  Fold(YACEi/YAC): -3.89
H3K9me3 ChIP peak chr4_3653408_3653656, 2210414B05Rik, Promoter (2-3kb)
  Fold(YACEi/YAC): -3.07
H3K9me3 ChIP peak chr4_55418287_55418885, Gm12505, Promoter (<=1kb)
  Fold(YACEi/YAC): -2.83
H3K9me3 ChIP peak chr4_73631010_73633171, Gm11236, Promoter (2-3kb)
  Fold(YACEi/YAC): -3.46
H3K9me3 ChIP peak chr4_96141001_96141325, Cyp2j12, Promoter (<=1kb)
  Fold(YACEi/YAC): -3.49
H3K9me3 ChIP peak chr5_147954155_147954429, Mtus2, Promoter (2-3kb)
  Fold(YACEi/YAC): -3.24
H3K9me3 ChIP peak chr6_8194240_8194734, Col28a1, Promoter (1-2kb)
  Fold(YACEi/YAC): -2.03
H3K9me3 ChIP peak chr6_40902902_40903167, Prss58, Promoter (2-3kb)
  Fold(YACEi/YAC): -3.27
H3K9me3 ChIP peak chr6_52209895_52210445, Hoxa6, Promoter (1-2kb)
  Fold(YACEi/YAC): -2.02
H3K9me3 ChIP peak chr6_57158878_57159171, Vmn1r12, Promoter (<=1kb)
  Fold(YACEi/YAC): -3.18
H3K9me3 ChIP peak chr6_82941890_82942092, Sema4f, Promoter (2-3kb)
  Fold(YACEi/YAC): -3.56
H3K9me3 ChIP peak chr6_88462374_88462646, Ruvbl1, Promoter (2-3kb)
  Fold(YACEi/YAC): -3.04
H3K9me3 ChIP peak chr6_116583898_116584203, Olfr215, Promoter (<=1kb)
  Fold(YACEi/YAC): -2.33
H3K9me3 ChIP peak chr7_20869153_20870151, Vmn1r116, Promoter (2-3kb)
  Fold(YACEi/YAC): -3.02
H3K9me3 ChIP peak chr7_28539372_28539811, Sycn, Promoter (1-2kb)
  Fold(YACEi/YAC): -2.21
H3K9me3 ChIP peak chr7_30914737_30915034, Mag, Promoter (<=1kb)
  Fold(YACEi/YAC): -2.46
H3K9me3 ChIP peak chr7_106081077_106081480, Gm8979, Promoter (1-2kb)
  Fold(YACEi/YAC): -3.34
H3K9me3 ChIP peak chr7_108053741_108053948, Olfr479, Promoter (1-2kb)
  Fold(YACEi/YAC): -2.28
H3K9me3 ChIP peak chr7_140154755_140155139, Sprn, Promoter (<=1kb)
  Fold(YACEi/YAC): -2.42
H3K9me3 ChIP peak chr8_67493810_67494076, Nat2, Promoter (<=1kb)
  Fold(YACEi/YAC): -2.63
H3K9me3 ChIP peak chr9_39238856_39239153, Olfr1537, Promoter (<=1kb)
  Fold(YACEi/YAC): -2.72
H3K9me3 ChIP peak chr10_75351156_75351507, Gm5779, Promoter (<=1kb)
  Fold(YACEi/YAC): -3.41
H3K9me3 ChIP peak chr10_78963256_78963630, Olfr1353, Promoter (<=1kb)
  Fold(YACEi/YAC): -2.79
H3K9me3 ChIP peak chr10_85919134_85919418, Prdm4, Promoter (1-2kb)
  Fold(YACEi/YAC): -2.28
H3K9me3 ChIP peak chr10_130212472_130212863, Olfr827, Promoter (1-2kb)
  Fold(YACEi/YAC): -3.69
H3K9me3 ChIP peak chr11_6231887_6232152, Npc1l1, Promoter (1-2kb)
  Fold(YACEi/YAC): -3.31
H3K9me3 ChIP peak chr11_70351943_70352224, Alox15, Promoter (<=1kb)
  Fold(YACEi/YAC): -2.33
H3K9me3 ChIP peak chr14_7570803_7571731, Gm3558, Promoter (2-3kb)
  Fold(YACEi/YAC): -3.02
H3K9me3 ChIP peak chr14_50785599_50785931, Ttc5, Promoter (<=1kb)
  Fold(YACEi/YAC): -3.3
H3K9me3 ChIP peak chr14_51147689_51148262, Rnase1, Promoter (<=1kb)
  Fold(YACEi/YAC): -2.5
H3K9me3 ChIP peak chr14_67860151_67860425, Mir6539, Promoter (<=1kb)
  Fold(YACEi/YAC): -2.31
H3K9me3 ChIP peak chr14_74972279_74972456, Gm4278, Promoter (2-3kb)
  Fold(YACEi/YAC): -3.57
H3K9me3 ChIP peak chr16_17917614_17917958, Gsc2, Promoter (2-3kb)
  Fold(YACEi/YAC): -3.59
H3K9me3 ChIP peak chr17_18913933_18914613, Vmn2r97, Promoter (<=1kb)
  Fold(YACEi/YAC): -3.35
H3K9me3 ChIP peak chr17_33553505_33553673, Myo1f, Promoter (2-3kb)
  Fold(YACEi/YAC): -3.41
H3K9me3 ChIP peak chr17_37114518_37114958, Olfr92, Promoter (2-3kb)
  Fold(YACEi/YAC): -2.4
H3K9me3 ChIP peak chr17_37485182_37485483, H2-M2, Promoter (1-2kb)
  Fold(YACEi/YAC): -3.71
H3K9me3 ChIP peak chr17_47927455_47927829, Foxp4, Promoter (2-3kb)
  Fold(YACEi/YAC): -2.83
H3K9me3 ChIP peak chr19_24902268_24902717, Foxd4, Promoter (<=1kb)
  Fold(YACEi/YAC): -2.16
H3K9me3 ChIP peak chrX_5469564_5470151, Mycs, Promoter (<=1kb)
  Fold(YACEi/YAC): -2.41
H3K9me3 ChIP peak chrX_6399655_6400248, Shroom4, Promoter (<=1kb)
  Fold(YACEi/YAC): -2.29
H3K9me3 ChIP peak chrX_7571434_7571820, Flicr, Promoter (1-2kb)
  Fold(YACEi/YAC): -4.01
H3K9me3 ChIP peak chrX_10118097_10118554, Srpx, Promoter (<=1kb)
  Fold(YACEi/YAC): -2.46
H3K9me3 ChIP peak chrX_10714202_10714657, Mid1ip1, Promoter (2-3kb)
  Fold(YACEi/YAC): -2.68
